Test results published in patent US7259167B2, “Antimalarial and antiproliferative pharmacophore models, novel tryptanthrin compounds having increased solubility, and methods of making and using thereof” (United States of America as Represented by the Secretary of …, priority 2002, dated 2007).

Experiments:
[1] = Further solubility experiments (remaining in solution after dilution); format: physicochemical
Experimental: After determining that heterocycles and hydroxy or amine substituted aromatics dissolve tryptanthrin compounds, the following was conducted to determine if once dissolved the compounds would remain in solution in aqueous environments. To this end 10 mg of DN49 was dissolved in 1.0 ml of piperidine to obtain a green solution. This solution was then added dropwise to 2.0 ml of deionized water without precipitation of the compound. The solution was placed in a chemical fume hood so that the piperidine could evaporate slowly. After a week, the piperidine had evaporated and the resulting solution had no solid in the aqueous environment and had turned from the green color of the piperidne complex back to the yellow color of uncomplexed DN49 solutions.
A […] green stock solution of DN49 in 1-(3-aminopropyl)imidazole was formed. To 1.95 ml of a given solvent listed below, 50 microliter of the stock solution was added and the resulting solution was vortexed for a second to ensure rapid mixing; this provided a 5 mM solution. The results by solvent follow: • 1. Chloroform: Solution goes from green to yellow in less than 30 minutes; no solid after more than three months at ambient conditions. • 2. Methanol: Solution goes from green to yellow between 5 and 12 hours after mixing; no solid. • 3. 1,4-dioxane: Solution goes from green to yellow in approximately 1 hour; no solid. • 4. Deionized water: Solution goes from […] over the course of several days; no solid. • 5. Acetonitrile: Solution goes from green to yellow in about 3 hours; no solid. • 6.

[2] = Characteristics of DN49 dosing preparation; format: physicochemical; details: Hot DMSO and further diluted in PBS (1:10)
Experimental: DN49 was a yellow powder and dissolved completely in hot DMSO. The hot DMSO solution was then diluted 1:10 in PBS.

In the case of `O=C1c2ccccc2-n2c1nc1ncccc1c2=O` [DN49], the “solid in aqueous solution after evaporation of piperidine” value ([1]; 10 mg in 1.0 ml piperidine added to 2.0 ml deionized water, after a week) is reported as “no solid”, the “solid formation from 5 mM solution” value ([1]; 50 microliter 200 mM stock in 1-(3-aminopropyl)imidazole into 1.95 ml Chloroform, more than three months at ambient conditions) is reported as “no solid” and the “solid formation from 5 mM solution” value ([1]; stock in 1-(3-aminopropyl)imidazole into 0.1 M aqueous citric acid) is reported as “green solid fall out of solution after about 12 hours”. For the same molecule, the “solid formation from 5 mM solution” value ([1]; stock in 1-(3-aminopropyl)imidazole into 1,4-dioxane) was “no solid”, the “solid formation from 5 mM solution” value ([1]; stock in 1-(3-aminopropyl)imidazole into 10% aqueous sodium bicarbonate) was “green precipitate after 8 hours” and the “solid formation from 5 mM solution” value ([1]; stock in 1-(3-aminopropyl)imidazole into Acetonitrile) was “no solid”. For the same molecule, the “solid formation from 5 mM solution” value ([1]; stock in 1-(3-aminopropyl)imidazole into Deionized water) was “no solid”, the “solid formation from 5 mM solution” value ([1]; stock in 1-(3-aminopropyl)imidazole into Methanol) was “no solid” and the solubility [2] was “Partial”.
